According to publication PMC11662004 (Communications Chemistry, 2024):
“And” between values parts separate entries of the source, which are not always exact repeats. Equal values may be shown once. Read-outs that look alike come from different tables or passages of the source. Positions of bridges follow the written chain, without caps; N, C: chain ends. Non-standard residues stand in square brackets, D forms with d. Residues, ends and D or L forms follow the SMILES beside them.

How the values were obtained:
NgTet1 [1] = target: T1, NgTet1 (Naegleria gruberi, UniProt D2W6T1); test: biochemical
T1 construct: His6-tagged full-length Naegleria gruberi NgTet1 (321 a. a.) protein with a thrombin cleavage site; made in house; host or cells: E. coli BL21(DE3)
T1 sequence (D2W6T1 1-321): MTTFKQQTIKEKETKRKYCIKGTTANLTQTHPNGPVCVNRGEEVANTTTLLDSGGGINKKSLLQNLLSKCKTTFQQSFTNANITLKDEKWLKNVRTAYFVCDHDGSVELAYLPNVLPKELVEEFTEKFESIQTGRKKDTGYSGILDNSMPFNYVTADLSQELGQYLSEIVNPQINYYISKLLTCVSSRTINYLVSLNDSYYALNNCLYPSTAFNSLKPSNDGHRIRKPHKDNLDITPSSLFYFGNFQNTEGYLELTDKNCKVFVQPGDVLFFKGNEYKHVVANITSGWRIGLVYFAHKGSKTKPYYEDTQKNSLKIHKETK
Experimental: (Fig. 5a), were screened for inhibitory activity against NgTet1.
(§1) Activity was normalised against reactions containing vehicle (DMSO). […] AS data shown as the mean of three experimental replicates (n = 3; mean ± SD); ^1H NMR data plotted from two independent replicates (n = 2); tabulated data reported as the mean of two and three independent replicates for ^1H NMR and AS, respectively (n = 2–3, SD reported for n = 3). N. d.: not determined; AS: AlphaScreen.
Compounds in DMSO (100 nL) were pre-dispensed in a logarithmically linear concentration gradient onto 384-well ProxiPlates using an Echo® 550 acoustic liquid handler (Labcyte). NgTet1 was pre-incubated with the inhibitor dilution series in DMSO at room temperature for 10 min. Reactions were initiated by the addition of appropriate cofactors and DNA. […] The reactions were quenched by the addition of 30 mM EDTA (pH 4.2), 358 mM NaCl (5 μL) within the enzyme linear activity window (determined in Fig. S10). Concurrently, a mixture containing the anti-^5hmC antibody (1:2000 dilution) and AlphaScreen beads (1:62.5 dilution) in assay buffer was prepared and incubated at room temperature for 30 min. The AlphaScreen bead/antibody mixture was added to the quenched NgTet1 reactions (5 μL), and the complete mixture was incubated at room temperature for 1 h. Chemiluminescence was measured on a PHERAstar FS/FSX (BMG Labtech) equipped with an AlphaScreen 680 570 module. All AlphaScreen bead manipulations were performed under subdued lighting. Inhibition data was normalised to reactions containing vehicle only (1% v/v DMSO) and fitted using “log(inhibitor) vs. response—Variable slope (four parameters)” non-linear regression model on GraphPad Prism 5.

NgTet1 [2] = target: T1, NgTet1; test: biochemical; conditions: for normalised activity: NgTet1, NMR, 2 independent replicates
Experimental: as §1
All ^1H NMR spectra were recorded at 25 °C using D2O as a reference for internal deuterium lock on a Bruker Avance III 700 MHz equipped with an inverse TCI cryoprobe in 3 or 5 mm diameter tubes with a total sample volume of 160 or 565 μL, respectively. The water signal was reduced using Perfect Echo excitation sculpting suppression. Chemical shifts are reported in ppm relative to D2O (δH = 4.70 ppm).
NgTet1 was pre-incubated with inhibitor dilution series in DMSO-d6 at room temperature for 10 min (50 mM Tris-d11 [pH 7.5], 2% v/v DMSO-d6). Reactions were initiated by the addition of appropriate cofactors and DNA. […] The reactions were quenched by the addition of 9 mM NOG and 9 mM ZnCl2 in 90 mM Tris-d11 [pH 7.5] (20 μL) within the enzyme linear activity window (determined in Figure. S10). Samples were transferred to NMR tubes and subjected to ^1H NMR analysis. Data were processed as described above. Inhibition data was normalised to reactions containing vehicle only (1% v/v DMSO-d6) and fitted using “log(inhibitor) vs. response - Variable slope (four parameters)” non-linear regression model on GraphPad Prism 5.
Activity was normalised against reactions containing vehicle only (100% activity). Data is shown as the mean of 2 independent replicates (n = 2; […]
Fig. S10 Determination of linear NgTet1 enzymatic activity windows for inhibitor characterisation. a 1H NMR succinate detection time courses with no DNA, 5HC DNA (double- […]
complementary 5'-ACC AC5mC GGT GGT-3'). b AlphaScreen 5hmC detection time course using […]
courses shown. 1H NMR reaction conditions: 5 μM NgTet1, 2 mM sodium L-ascorbate, 100 μM […]
v/v D2O. DNA was added to a final concentration of 20 μM of double-stranded DNA. […]

CC[C@H](C)[C@@H]1NC(=O)[C@H](CC(C)C)NC(=O)[C@@H](Cc2ccc(O)cc2)NC(=O)CSC[C@@H](C(N)=O)NC(=O)[C@H](CO)NC(=O)[C@H](Cc2c[nH]cn2)NC(=O)[C@H](CCC(=O)O)NC(=O)[C@H](Cc2c[nH]c3ccccc23)NC(=O)[C@H](Cc2c[nH]c3ccccc23)NC(=O)[C@H]([C@@H](C)O)NC(=O)[C@H](Cc2ccc(O)cc2)NC(=O)[C@H](Cc2ccc(O)cc2)NC(=O)[C@H](C)NC(=O)[C@H](Cc2ccc(O)cc2)NC1=O [TiP1] ({CH2CO}-[dY]LIYAYYTWWEHSC-NH2; thioether N-14)
IC50 (NgTet1 [1]): 26.3 µM
normalised activity, % (NgTet1 [1]; AlphaScreen, -Log[inhibitor] (M) 8.73132): 115.665% and 99.133% and 91.2094% and 100% and 99.1774% and 99.7728% and 97.6796%
uncoupled 2OG decarboxylase activity relative to control (NgTet1 [2]; 1.2 equivalents (6.17 μM) of ligand, no 5mC DNA substrate): 137%
normalised activity, % (NgTet1 [2]; 5mC DNA, NMR, -Log[inhibitor] (M) 3.30103): 0.3831% and 0.8644%
normalised activity, % (NgTet1 [2]; 5mC DNA, NMR, -Log[inhibitor] (M) 3.77815): 0%
normalised activity, % (NgTet1 [2]; 5mC DNA, NMR, -Log[inhibitor] (M) 4.25527): 7.31% and 14.7287%
normalised activity, % (NgTet1 [2]; 5mC DNA, NMR, -Log[inhibitor] (M) 4.73239): 78.5121% and 83.5696%
normalised activity, % (NgTet1 [2]; 5mC DNA, NMR, -Log[inhibitor] (M) 5.20951): 98.5224% and 104.299%
normalised activity, % (NgTet1 [2]; 5mC DNA, NMR, -Log[inhibitor] (M) 5.68664): 102.213% and 96.5096%
normalised activity, % (NgTet1 [2]; 5mC DNA, NMR, -Log[inhibitor] (M) 6.16376): 101.348% and 99.8653%
normalised activity, % (NgTet1 [2]; 5mC DNA, NMR, -Log[inhibitor] (M) 6.64088): 101.5% and 99.6319%
normalised activity, % (NgTet1 [2]; 5mC DNA, NMR, -Log[inhibitor] (M) 7.118): 99.9781% and 101.169%
normalised activity, % (NgTet1 [2]; 5mC DNA, NMR, -Log[inhibitor] (M) 7.59512): 101.989% and 101.514%
normalised activity (NgTet1 [2]; -Log[inhibitor] (M) 3.30103): 1.539% and 0.6062%
normalised activity (NgTet1 [2]; -Log[inhibitor] (M) 3.77815): 5.644% and 0.04671%
normalised activity (NgTet1 [2]; -Log[inhibitor] (M) 4.25527): 23.0301% and 11.8368%
normalised activity (NgTet1 [2]; -Log[inhibitor] (M) 4.73239): 129.261% and 95.1469%
normalised activity (NgTet1 [2]; -Log[inhibitor] (M) 5.20951): 124.894% and 132.33%
normalised activity (NgTet1 [2]; -Log[inhibitor] (M) 5.68664): 97.9138% and 111.807%
normalised activity (NgTet1 [2]; -Log[inhibitor] (M) 6.16376): 101.603% and 106.324%
normalised activity (NgTet1 [2]; -Log[inhibitor] (M) 6.64088): 102.045% and 105.397%
normalised activity (NgTet1 [2]; -Log[inhibitor] (M) 7.118): 107.511% and 102.971%
normalised activity (NgTet1 [2]; -Log[inhibitor] (M) 7.59512): 96.6941%
IC50 (NgTet1 [2]; IC50, 5mC DNA, NMR, 2OG decarboxylation with 20 µM 5mC DNA, 5 μM NgTet1, 50 μM 2OG): 28.8 µM
IC50 (NgTet1 [2]; IC50, No DNA, NMR, uncoupled 2OG decarboxylation, no DNA, 5 μM NgTet1, 50 μM 2OG): 26.3 µM
IC50 (NgTet1 [2]; IC50 across all assays, AS and 1H NMR assays): 26 to 29 µM
normalised activity, % (NgTet1 [2]; No DNA, NMR, -Log[inhibitor] (M) 3.30103): 1.539% and 0.6062%
normalised activity, % (NgTet1 [2]; No DNA, NMR, -Log[inhibitor] (M) 3.77815): 5.644% and 0.04671%
normalised activity, % (NgTet1 [2]; No DNA, NMR, -Log[inhibitor] (M) 4.25527): 23.0301% and 11.8368%
normalised activity, % (NgTet1 [2]; No DNA, NMR, -Log[inhibitor] (M) 4.73239): 129.261% and 95.1469%
normalised activity, % (NgTet1 [2]; No DNA, NMR, -Log[inhibitor] (M) 5.20951): 124.894% and 132.33%
normalised activity, % (NgTet1 [2]; No DNA, NMR, -Log[inhibitor] (M) 5.68664): 97.9138% and 111.807%
normalised activity, % (NgTet1 [2]; No DNA, NMR, -Log[inhibitor] (M) 6.16376): 101.603% and 106.324%
normalised activity, % (NgTet1 [2]; No DNA, NMR, -Log[inhibitor] (M) 6.64088): 102.045% and 105.397%
normalised activity, % (NgTet1 [2]; No DNA, NMR, -Log[inhibitor] (M) 7.118): 107.511% and 102.971%
normalised activity, % (NgTet1 [2]; No DNA, NMR, -Log[inhibitor] (M) 7.59512): 96.6941%
normalised activity, % (NgTet1 [2]; TiP1 statistical test, NMR, no DNA, NgTet1/TiP1 ratio 1:1.2, technical replicates): 140.602% and 133.857% and 142.6% and 131.935%
normalised activity, % (NgTet1 [2]; TiP1 statistical test, NMR, no DNA, NgTet1/TiP1 ratio 1:3.7, technical replicates): 103.459% and 107.449% and 116.09% and 117.125%
